Test results: PMC6271893, “In Vitro Antioxidant and Cytotoxic Activity of Some Synthetic Riparin-Derived Compounds” (Molecules, 2014)
Values after ≈ are worked out from the molar mass of the structure shown. Marks after values point to notes of the source that are not given here.

Tests used:
[1] = test system: larynx carcinoma cell line HEP-2; set-up: method as in PMID 23569415; conditions: cited from earlier work
[2] = test system: murine peritoneal macrophages RAW 264.7; assay: Cytotoxicity assay on RAW 264.7 (LDH release); type: cell-based; conditions: 25 µg/mL, RAW 264.7
Procedure: Murine peritoneal macrophages of the cell line RAW 264.7 were obtained from the American Type Culture Collection (ATCC, Rockville, MD, USA), and cultured at 37 °C with CO2 at 5% in DMEM-F12 supplemented with 10% fetal bovine serum (FBS; Hyclone^TM, Logan, UT, USA) and gentamicin (50 μg/mL). RAW 264.7 cells (5 × 10^5 cells/mL) were cultured and incubated for 24 h with the riparins A, B, C, D, E and F at the final concentration of 25 µg/mL […]. The cytotoxicity assay was performed by LDH assay. The release of LDH (cytoplasmic lactate dehydrogenase enzyme) was determined using 50 μL of culture supernatant with 100 μL of LDH substrate plus and 5 μL ferric alum (5 mg/mL), at 37 °C for 3 min. Then, 100 μL of the NAD solution and phenazine methosulphate were added to the mixture, maintaining the temperature at 37 °C for 5 min (Labrax Commercial Kit, Clontech, Palo Alto, CA, USA). LDH is an oxidoreductase which catalyzes the interconversion of lactate and pyruvate and, for being a stable cytosolic enzyme, after damage to cell membrane it is released in the cellular environment and because of this LDH is an indirect indicator of cytotoxicity. LDH concentration was determined by colorimetry at 492 nm. The specific release of LDH was calculated as percentage of the controls (not treated cells as negative control and cells treated with 1%Triton X-100 as positive control).
(§1) The obtained data were evaluated by one-way analysis of variance (ANOVA) followed by a Student Newman Keuls post hoc test. The data concerning release percentage of cytoplasmatic enzyme lactate dehydrogenase (LDH) were reported by mean ± standard deviation and evaluated by one-way analysis of variance (ANOVA) followed by a Tukey post hoc test. In all cases differences were considered significant if p < 0.05, the means and respective standard errors were analyzed in the Graph Pad Prism version 5.0 for Windows software (GraphPad Software Incorporated, San Diego, CA, USA).

[3] = Antioxidant potential against the formation of TBARS (AAPH-induced lipid peroxidation of egg yolk homogenate); conditions: for IC50 TBARS: TBARS production
Procedure: (§2) For the in vitro antioxidant tests the samples were emulsified in 0.05% Tween 80 dissolved in saline 0.9% (used as the vehicle) and tested at concentrations of 1, 5, 10, 25 and 100 µg/mL. The samples for the cytotoxicity tests were diluted in pure and sterile DMSO and tested at concentrations of 25 µg/mL.
The TBARS assay was employed to quantify lipid peroxidation and an adapted TBARS method was used to measure the antioxidant capacity of the riparins (Rip-A, -B, -C, -D, -E and -F) using egg yolk homogenate as lipid rich substrate. Egg yolk was homogenized (1% w/v) in 20 mM phosphate buffer (pH 7.4), 1 mL of homogenate was sonicated and then homogenized with 0.1 mL of the samples at concentrations of 1, 5, 10, 25 and 100 µg/mL. Lipid peroxidation was induced by the addition of 0.1 mL of 2,2'-azobis(2-methylpropionamidine) dihydrochloride solution (AAPH; 0.12 M). Control was evaluated with only the vehicle. Reactions were carried out for 15 minutes at 37 °C. After cooling, samples (0.5 mL) were centrifuged with 0.5 mL of trichloroacetic acid (15%) at 1,200 ×g for 10 min. An aliquot of 0.5 mL from supernatant was mixed with 0.5 mL TBA (0.67%) and heated at 95 °C for 30 min. After cooling, sample absorbance was measured using a spectrophotometer at 532 nm. The results were expressed as percentage of TBARS formed by AAPH alone (induced control).

[4] = Hydroxyl radical scavenging activity (2-deoxyribose degradation, Fenton reaction); conditions: for IC50 OH radical: hydroxyl radical content
Procedure: as §2
The formation of OH radicals from Fenton reagents was quantified using the condensation product of the 2-deoxyribose oxidative degradation product, malonaldehyde, with 2-thiobarbituric acid (TBA). Briefly, typical reactions were started by the addition of Fe^2+ (FeSO4 6 mM final concentration) to solutions containing 5 mM 2-deoxyribose, 100 mM H2O2 and 20 mM phosphate buffer (pH 7.2). In order to determine the antioxidant activity of the riparins against the hydroxyl radical, individual tests were performed on each one of the six substances, in which different concentrations of the riparins were added to the system before Fe^2+ addition (Rip-A; Rip-B; Rip-C; Rip-D; Rip-E and Rip-F). Reactions were carried out for 15 min at room temperature and were quenched by the addition of phosphoric acid 4% (v/v), followed by TBA 1% (thiobarbituric acid, v/v in 50 μL NaOH). The solutions were boiled for 15 min to 95 °C and then cooled at room temperature. The absorbance was measured at 532 nm and the results were expressed as MDA equivalents formed by Fe^2+ and H2O2 [25].

[5] = test system: NCIH-292 (lung carcinoma); assay: Cytotoxicity against tumor cell lines (MTT); type: cell-based; conditions: Homo sapiens, NCI-H292, 72 h, 95% confidence interval in brackets, read-out: IC50 values and confidence intervals, NCIH-292
Procedure: (§3) Cells were maintained at 37 °C with 5% CO2 in RPMI 1640 (Himedia^TM, Mumbai, India) or DMEM medium (Gibco^TM, Grand Island, NY, USA) supplemented with 2 mM glutamine, 100 U/mL penicillin, 100 μg/mL streptomycin. The antiproliferative activities of riparins were evaluated in the following human cancer cells lineage: HL-60 (pro-myelocytic leukemia), NCIH-292 (lung carcinoma), and HEP-2 (laryngeal carcinoma) obtained from the Rio de Janeiro Cell Bank (RJ-Brazil). For all experiments, 100 µL of tumor cells were plated in 96-well plates (6 × 10^4 cells/cm^2 for adherent cells or 9 × 10^4 cells/cm^2 for leukemia). Tested compounds (0.1–25 μg/mL) dissolved in 1% DMSO (100 µL) were added to each well and incubated for 72 h. Control groups received the same amount of DMSO. After 69 h of treatment, 25 μL of MTT (5 mg/mL) were added. Three hours later, the MTT formazan product was dissolved in 100 μL of DMSO, and absorbance was measured at 595 nm using a multiplate reader (Thermo Plate®, TP Reader, São Paulo, SP, Brasil).
as §1

[6] = test system: HEP-2 (laryngeal carcinoma); assay: Cytotoxicity against tumor cell lines (MTT); type: cell-based; conditions: Homo sapiens, 72 h, 95% confidence interval in brackets, read-out: IC50 values and confidence intervals, HEP-2
Procedure: as §3, §1

[7] = test system: HL-60 (pro-myelocytic leukemia); assay: Cytotoxicity against tumor cell lines (MTT); type: cell-based; conditions: Homo sapiens, 72 h, 95% confidence interval in brackets, read-out: IC50 values and confidence intervals, HL-60
Procedure: as §3, §1

[8] = Scavenging activity of nitric oxide (nitrite production induced by SNP, Griess reaction); conditions: for IC50 Nitrite: nitrite formation
Procedure: as §2
Nitric oxide was generated from spontaneous decomposition of sodium nitroprusside in 20 mM phosphate buffer (pH 7.4). Once generated, NO interacts with oxygen to produce nitrite ions, which are measured by the Griess reaction. The reaction mixture (1 mL) containing 10 mM sodium nitroprusside (SNP) in phosphate buffer and the riparins at various concentrations of 1, 5, 10, 25 and 100 µg/mL were incubated at 37 °C for 1 h. A 0.5 mL aliquot was taken and homogenized with 0.5 mL Griess reagent. The absorbance of chromophore was measured at 540 nm. Percent inhibition of generated nitric oxide was measured by comparing the absorbance values of negative controls (only 10 mM sodium nitroprusside and vehicle) to assay preparations. Results were expressed as percentage of nitrite formed by SNP alone.

[9] = test system: tumor cells lines (leukemia and lung and laryngeal carcinoma); assay: Cytotoxicity on tumor cell lines, summary statements over the lines (MTT); type: cell-based; conditions: Homo sapiens; for IC50: leukemia and lung and laryngeal carcinoma, read-out: IC50 values on neoplastic cells (range over cell lines); for inhibition at 25 µg/mL: tumor cells lines, cytotoxicity samples tested at 25 µg/mL, read-out: cell growth inhibition rates
Procedure: as §2, §3

Compound: CC[C@H]1CC2CN3CCc4c([nH]c5ccc(OC)cc45)[C@](C(=O)OC)(C2)[C@H]13 (stereo in doubt) [voacangine]
- IC50 on HEP-2 [1]: 159.33 mg/L (≈ 432 µM)

Compound: CC[C@H]1C[C@@H]2CN3CCc4c([nH]c5ccccc45)[C@](C(=O)OC)(C2)[C@H]13 [Coronaridine, coronaridine]
- IC50 on HEP-2 [1]: 54.47 mg/L (≈ 161 µM)

Compound: COc1ccc(CCNC(=O)c2ccccc2O)cc1OC [Rip-D, 2-Hydroxy-N-[2-(3,4-methoxyphenyl)ethyl]benzamide]
- LDH % Release [2]: 83.12%
- LDH % Release ([2]; listed as riparin D): greater than 80%
- melting point: 96 °C
- TBARS levels (% AAPH) ([3]; 1 μg/mL): 41.2 ± 0.96 ^a %
- TBARS levels (% AAPH) ([3]; 5 μg/mL): 39.4 ± 0.71 ^a %
- TBARS levels (% AAPH) ([3]; 10 μg/mL): 37.3 ± 0.68 ^a %
- TBARS levels (% AAPH) ([3]; 25 μg/mL): 34.4 ± 0.76 ^a %
- TBARS levels (% AAPH) ([3]; 100 μg/mL): 25.6 ± 0.66 ^a %
- IC50 TBARS [3]: 0.9958 mg/L (≈ 3.3 µM)
- 2-Deoxyribose degradation (%) ([4]; 1 μg/mL): 93.5 ± 1.17 ^a %
- 2-Deoxyribose degradation (%) ([4]; 5 μg/mL): 67.9 ± 1.74 ^a %
- 2-Deoxyribose degradation (%) ([4]; 10 μg/mL): 56.9 ± 0.82 ^a %
- 2-Deoxyribose degradation (%) ([4]; 25 μg/mL): 51.9 ± 1.27 ^a %
- 2-Deoxyribose degradation (%) ([4]; 100 μg/mL): 47.3 ± 0.88 ^a %
- IC50 OH radical [4]: 1.358 mg/L (≈ 4.51 µM)
- IC50 [5]: > 25 mg/L
- IC50 [6]: 7.3 mg/L (≈ 24.2 µM)
- IC50 [7]: 9 mg/L (≈ 29.9 µM)
- Nitrite Production (% induced by SNP) ([8]; 1 μg/mL): 72.6 ± 1.81 ^a %
- Nitrite Production (% induced by SNP) ([8]; 5 μg/mL): 32.2 ± 1.45 ^a %
- Nitrite Production (% induced by SNP) ([8]; 10 μg/mL): 28.9 ± 1.74 ^a %
- Nitrite Production (% induced by SNP) ([8]; 25 μg/mL): 24.7 ± 1.77 ^a %
- Nitrite Production (% induced by SNP) ([8]; 100 μg/mL): 17.3 ± 2.38 ^a %
- IC50 Nitrite [8]: 1.270 mg/L (≈ 4.21 µM)
- IC50 [9]: 1.9 to 11.4 mg/L (≈ 6.31 to 37.8 µM)
- inhibition at 25 µg/mL [9]: > 70%

Compound: COc1ccc(CCNC(=O)c2c(O)cccc2O)cc1OC [Rip-F, N-[2-(3,4-Dimethoxyphenyl)ethyl]-2,6-dihydroxybenzamide]
- LDH % Release [2]: 91.01%
- LDH % Release ([2]; listed as riparin F): greater than 80%
- melting point: 167 °C
- TBARS levels (% AAPH) ([3]; 1 μg/mL): 38.8 ± 0.99 ^a %
- TBARS levels (% AAPH) ([3]; 5 μg/mL): 35.9 ± 0.41 ^a %
- TBARS levels (% AAPH) ([3]; 10 μg/mL): 35.2 ± 0.44 ^a %
- TBARS levels (% AAPH) ([3]; 25 μg/mL): 34.6 ± 0.49 ^a %
- TBARS levels (% AAPH) ([3]; 100 μg/mL): 30.3 ± 0.47 ^a %
- IC50 TBARS [3]: 0.6231 mg/L (≈ 1.96 µM)
- 2-Deoxyribose degradation (%) ([4]; 1 μg/mL): 83.3 ± 2.13 ^a %
- 2-Deoxyribose degradation (%) ([4]; 5 μg/mL): 61.5 ± 0.98 ^a %
- 2-Deoxyribose degradation (%) ([4]; 10 μg/mL): 57.6 ± 1.47 ^a %
- 2-Deoxyribose degradation (%) ([4]; 25 μg/mL): 55.1 ± 1.78 ^a %
- 2-Deoxyribose degradation (%) ([4]; 100 μg/mL): 50.9 ± 2.33 ^a %
- IC50 OH radical [4]: 1.016 mg/L (≈ 3.2 µM)
- IC50 [5]: 10.3 mg/L (≈ 32.5 µM)
- IC50 [6]: 7.8 mg/L (≈ 24.6 µM)
- IC50 [7]: 11.4 mg/L (≈ 35.9 µM)
- Nitrite Production (% induced by SNP) ([8]; 1 μg/mL): 74.9 ± 2.27 ^a %
- Nitrite Production (% induced by SNP) ([8]; 5 μg/mL): 35.3 ± 0.96 ^a %
- Nitrite Production (% induced by SNP) ([8]; 10 μg/mL): 21.5 ± 0.98 ^a %
- Nitrite Production (% induced by SNP) ([8]; 25 μg/mL): 19.9 ± 0.71 ^a %
- Nitrite Production (% induced by SNP) ([8]; 100 μg/mL): 17.3 ± 0.22 ^a %
- IC50 Nitrite [8]: 0.5817 mg/L (≈ 1.83 µM)
- IC50 [9]: 1.9 to 11.4 mg/L (≈ 5.99 to 35.9 µM)
- inhibition at 25 µg/mL [9]: > 70%

Compound: heyneanine
- IC50 on HEP-2 [1]: 689.45 mg/L
